Among the data in ChEMBL document CHEMBL2417377, “Hit-to-lead optimization and kinase selectivity of imidazo[1,2-a]quinoxalin-4-amine derived JNK1 inhibitors” (Bioorg Med Chem Lett, 2013) are inhibition values, retold here.

Assay [1] has as its target Protein kinase C alpha type (Homo sapiens) (UniProt P17252). Put plainly: Inhibition of PKCalpha in human PC3 cell lysates at 10 uM using desthiobiotin-tagged ATP probe AX9989 followed by trypsinization by LC/MS analysis. The note with it: PC-3.
In assay [2] the target is Cyclin-dependent kinase 10 (Homo sapiens) (UniProt Q15131). Put plainly: Inhibition of CDK10 in human PC3 cell lysates at 10 uM using desthiobiotin-tagged ATP probe AX9989 followed by trypsinization by LC/MS analysis. To be noted: PC-3.
In assay [3] the target is Serine/threonine-protein kinase PRP4 homolog (Homo sapiens) (UniProt Q13523). Put plainly: Inhibition of PRP4 in human PC3 cell lysates at 10 uM using desthiobiotin-tagged ATP probe AX9989 followed by trypsinization by LC/MS analysis. To be noted: PC-3.
Assay [4] in a line: Inhibition of PITSLRE in human PC3 cell lysates at 10 uM using desthiobiotin-tagged ATP probe AX9989 followed by trypsinization by LC/MS analysis. In kind it is cell-free. The note with it: PC-3.
Assay [5] addresses T1, Dual specificity mitogen-activated protein kinase kinase 3 (Homo sapiens) (UniProt P46734).
T1 sequence (whole entry): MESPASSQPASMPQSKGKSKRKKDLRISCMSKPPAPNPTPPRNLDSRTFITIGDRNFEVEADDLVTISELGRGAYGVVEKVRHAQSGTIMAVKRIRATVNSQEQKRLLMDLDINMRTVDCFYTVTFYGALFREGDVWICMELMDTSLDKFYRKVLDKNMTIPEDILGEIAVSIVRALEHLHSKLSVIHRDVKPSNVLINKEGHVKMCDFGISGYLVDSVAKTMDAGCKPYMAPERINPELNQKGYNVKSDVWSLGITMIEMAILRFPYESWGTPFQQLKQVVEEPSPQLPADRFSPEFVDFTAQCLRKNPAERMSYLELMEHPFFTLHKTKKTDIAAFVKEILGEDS
Put plainly: Inhibition of MAP2K3 in human PC3 cell lysates at 10 uM using desthiobiotin-tagged ATP probe AX9989 followed by trypsinization by LC/MS analysis. The note with it: PC-3.

In assay [6] the target is Serine/threonine-protein kinase tousled-like 2 (Homo sapiens) (UniProt Q86UE8). Put plainly: Inhibition of TLK2 in human PC3 cell lysates at 10 uM using desthiobiotin-tagged ATP probe AX9989 followed by trypsinization by LC/MS analysis. The note with it: PC-3.
The target of assay [7] is T2, Scaffold protein ILK (Homo sapiens) (UniProt Q13418).
T2 sequence (whole entry): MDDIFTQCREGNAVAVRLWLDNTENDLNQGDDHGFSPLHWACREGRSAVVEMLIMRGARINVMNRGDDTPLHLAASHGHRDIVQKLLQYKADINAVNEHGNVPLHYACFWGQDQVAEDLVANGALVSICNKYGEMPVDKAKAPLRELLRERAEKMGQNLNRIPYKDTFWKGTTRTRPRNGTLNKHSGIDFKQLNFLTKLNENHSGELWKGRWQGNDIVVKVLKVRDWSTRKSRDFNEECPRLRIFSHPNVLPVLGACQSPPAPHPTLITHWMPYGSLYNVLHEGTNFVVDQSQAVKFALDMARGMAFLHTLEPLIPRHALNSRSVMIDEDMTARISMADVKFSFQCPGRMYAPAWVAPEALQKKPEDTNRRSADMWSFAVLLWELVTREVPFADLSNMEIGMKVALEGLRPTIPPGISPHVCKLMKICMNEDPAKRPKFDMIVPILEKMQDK
Put plainly: Inhibition of ILK in human PC3 cell lysates at 10 uM using desthiobiotin-tagged ATP probe AX9989 followed by trypsinization by LC/MS analysis. The note with it: PC-3.

Assay [8] deals with Dual specificity mitogen-activated protein kinase kinase 2 (Homo sapiens) (UniProt P36507). Put plainly: Inhibition of MAP2K2 in human PC3 cell lysates at 10 uM using desthiobiotin-tagged ATP probe AX9989 followed by trypsinization by LC/MS analysis. To be noted: PC-3.
The target in assay [9] is Tyrosine-protein kinase Fer (Homo sapiens) (UniProt P16591). Put plainly: Inhibition of FER in human PC3 cell lysates at 10 uM using desthiobiotin-tagged ATP probe AX9989 followed by trypsinization by LC/MS analysis. To be noted: PC-3.
For assay [10], the target named is Mitogen-activated protein kinase kinase kinase 20 (Homo sapiens) (UniProt Q9NYL2). Put plainly: Inhibition of ZAK in human PC3 cell lysates at 10 uM using desthiobiotin-tagged ATP probe AX9989 followed by trypsinization by LC/MS analysis. The note with it: PC-3.
In a further assay the test system is PC-3. Put plainly: Inhibition of ANPbeta in human PC3 cell lysates at 10 uM using desthiobiotin-tagged ATP probe AX9989 followed by trypsinization by LC/MS analysis. In kind it is cell-free.
Assay [11] concerns the target T3, Ephrin type-A receptor 1 (Homo sapiens) (UniProt P21709).
T3 sequence (whole entry): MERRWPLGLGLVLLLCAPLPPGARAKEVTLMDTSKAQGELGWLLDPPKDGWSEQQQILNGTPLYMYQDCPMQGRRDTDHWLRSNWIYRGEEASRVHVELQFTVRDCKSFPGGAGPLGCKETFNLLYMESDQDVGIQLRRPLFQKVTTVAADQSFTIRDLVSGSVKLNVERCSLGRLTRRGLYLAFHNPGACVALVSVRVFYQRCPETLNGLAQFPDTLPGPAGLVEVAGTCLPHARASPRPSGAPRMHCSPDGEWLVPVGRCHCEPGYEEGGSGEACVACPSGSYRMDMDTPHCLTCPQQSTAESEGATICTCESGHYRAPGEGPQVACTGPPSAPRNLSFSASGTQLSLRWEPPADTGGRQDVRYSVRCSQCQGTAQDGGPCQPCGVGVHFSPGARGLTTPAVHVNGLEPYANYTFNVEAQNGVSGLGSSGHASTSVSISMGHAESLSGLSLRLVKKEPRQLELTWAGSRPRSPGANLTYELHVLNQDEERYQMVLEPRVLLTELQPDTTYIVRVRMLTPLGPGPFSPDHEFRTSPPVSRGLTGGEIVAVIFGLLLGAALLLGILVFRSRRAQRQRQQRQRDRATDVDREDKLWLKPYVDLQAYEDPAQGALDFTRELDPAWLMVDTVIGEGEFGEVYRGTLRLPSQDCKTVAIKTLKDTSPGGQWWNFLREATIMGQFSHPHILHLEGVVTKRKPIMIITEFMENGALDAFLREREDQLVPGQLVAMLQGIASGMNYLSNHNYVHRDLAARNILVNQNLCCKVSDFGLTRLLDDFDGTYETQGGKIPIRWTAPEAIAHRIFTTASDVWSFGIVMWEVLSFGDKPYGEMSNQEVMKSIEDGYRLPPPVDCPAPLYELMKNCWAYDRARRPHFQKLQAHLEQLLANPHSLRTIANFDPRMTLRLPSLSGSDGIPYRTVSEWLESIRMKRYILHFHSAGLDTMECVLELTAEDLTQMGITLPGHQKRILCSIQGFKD
Put plainly: Inhibition of EphA1 in human PC3 cell lysates at 10 uM using desthiobiotin-tagged ATP probe AX9989 followed by trypsinization by LC/MS analysis. The note with it: PC-3.

Assay [12] addresses Mitogen-activated protein kinase 3 (Homo sapiens) (UniProt P27361). Put plainly: Inhibition of Erk1 in human PC3 cell lysates at 10 uM using desthiobiotin-tagged ATP probe AX9989 followed by trypsinization by LC/MS analysis. To be noted: PC-3.

Sequence of Dual specificity mitogen-activated protein kinase kinase 2 (Homo sapiens) (P36507 whole entry): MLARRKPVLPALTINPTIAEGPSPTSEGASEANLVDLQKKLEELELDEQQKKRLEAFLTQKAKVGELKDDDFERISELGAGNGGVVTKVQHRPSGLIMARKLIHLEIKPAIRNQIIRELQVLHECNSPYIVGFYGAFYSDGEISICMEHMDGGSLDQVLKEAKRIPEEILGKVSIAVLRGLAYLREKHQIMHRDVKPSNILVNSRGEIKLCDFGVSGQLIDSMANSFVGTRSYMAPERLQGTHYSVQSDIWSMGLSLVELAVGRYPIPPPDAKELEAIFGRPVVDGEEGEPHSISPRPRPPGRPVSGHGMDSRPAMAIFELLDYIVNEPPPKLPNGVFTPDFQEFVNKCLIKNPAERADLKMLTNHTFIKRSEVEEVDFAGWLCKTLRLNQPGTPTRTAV
Sequence of Cyclin-dependent kinase 10 (Homo sapiens) (Q15131 whole entry): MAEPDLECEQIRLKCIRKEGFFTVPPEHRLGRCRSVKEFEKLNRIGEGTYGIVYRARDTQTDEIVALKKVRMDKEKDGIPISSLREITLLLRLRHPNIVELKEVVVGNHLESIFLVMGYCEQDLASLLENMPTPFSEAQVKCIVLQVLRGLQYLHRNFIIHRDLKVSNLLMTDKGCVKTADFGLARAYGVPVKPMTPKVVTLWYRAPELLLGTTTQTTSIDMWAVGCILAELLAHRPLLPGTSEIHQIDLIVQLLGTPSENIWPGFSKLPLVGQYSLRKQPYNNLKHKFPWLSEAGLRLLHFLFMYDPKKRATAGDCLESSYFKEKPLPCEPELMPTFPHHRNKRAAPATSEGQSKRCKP
Sequence of Tyrosine-protein kinase Fer (Homo sapiens) (P16591 whole entry, looked up): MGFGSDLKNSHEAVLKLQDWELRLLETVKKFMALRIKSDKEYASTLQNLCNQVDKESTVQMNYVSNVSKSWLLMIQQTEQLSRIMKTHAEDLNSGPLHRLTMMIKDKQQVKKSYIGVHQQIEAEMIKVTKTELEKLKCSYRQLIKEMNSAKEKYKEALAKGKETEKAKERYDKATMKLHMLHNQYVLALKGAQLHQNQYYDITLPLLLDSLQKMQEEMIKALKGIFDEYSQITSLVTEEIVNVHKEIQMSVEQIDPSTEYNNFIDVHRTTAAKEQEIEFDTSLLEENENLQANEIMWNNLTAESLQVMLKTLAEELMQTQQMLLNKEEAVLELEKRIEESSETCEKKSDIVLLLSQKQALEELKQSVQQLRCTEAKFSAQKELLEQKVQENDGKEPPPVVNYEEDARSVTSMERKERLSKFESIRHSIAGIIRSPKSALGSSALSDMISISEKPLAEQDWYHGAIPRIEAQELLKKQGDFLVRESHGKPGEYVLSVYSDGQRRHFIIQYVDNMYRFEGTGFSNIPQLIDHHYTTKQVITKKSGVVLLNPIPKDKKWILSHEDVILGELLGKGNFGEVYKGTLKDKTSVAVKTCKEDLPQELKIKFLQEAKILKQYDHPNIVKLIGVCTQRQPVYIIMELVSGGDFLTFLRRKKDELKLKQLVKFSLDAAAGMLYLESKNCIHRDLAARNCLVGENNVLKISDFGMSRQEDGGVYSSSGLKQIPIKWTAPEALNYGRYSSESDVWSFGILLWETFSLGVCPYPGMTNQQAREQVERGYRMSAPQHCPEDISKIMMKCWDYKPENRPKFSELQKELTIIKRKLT
Sequence of Mitogen-activated protein kinase 3 (Homo sapiens) (P27361 whole entry): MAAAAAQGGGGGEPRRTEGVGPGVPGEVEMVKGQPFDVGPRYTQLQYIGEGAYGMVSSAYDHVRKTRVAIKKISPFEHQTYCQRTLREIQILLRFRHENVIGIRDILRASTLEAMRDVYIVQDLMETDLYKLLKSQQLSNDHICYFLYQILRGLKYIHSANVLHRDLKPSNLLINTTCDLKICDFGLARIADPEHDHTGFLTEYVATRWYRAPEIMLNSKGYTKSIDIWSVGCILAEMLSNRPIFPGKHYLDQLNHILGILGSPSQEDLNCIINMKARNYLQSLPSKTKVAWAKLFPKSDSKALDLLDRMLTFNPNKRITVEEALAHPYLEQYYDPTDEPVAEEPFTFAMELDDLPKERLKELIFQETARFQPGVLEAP
Sequence of Serine/threonine-protein kinase tousled-like 2 (Homo sapiens) (Q86UE8 whole entry, looked up): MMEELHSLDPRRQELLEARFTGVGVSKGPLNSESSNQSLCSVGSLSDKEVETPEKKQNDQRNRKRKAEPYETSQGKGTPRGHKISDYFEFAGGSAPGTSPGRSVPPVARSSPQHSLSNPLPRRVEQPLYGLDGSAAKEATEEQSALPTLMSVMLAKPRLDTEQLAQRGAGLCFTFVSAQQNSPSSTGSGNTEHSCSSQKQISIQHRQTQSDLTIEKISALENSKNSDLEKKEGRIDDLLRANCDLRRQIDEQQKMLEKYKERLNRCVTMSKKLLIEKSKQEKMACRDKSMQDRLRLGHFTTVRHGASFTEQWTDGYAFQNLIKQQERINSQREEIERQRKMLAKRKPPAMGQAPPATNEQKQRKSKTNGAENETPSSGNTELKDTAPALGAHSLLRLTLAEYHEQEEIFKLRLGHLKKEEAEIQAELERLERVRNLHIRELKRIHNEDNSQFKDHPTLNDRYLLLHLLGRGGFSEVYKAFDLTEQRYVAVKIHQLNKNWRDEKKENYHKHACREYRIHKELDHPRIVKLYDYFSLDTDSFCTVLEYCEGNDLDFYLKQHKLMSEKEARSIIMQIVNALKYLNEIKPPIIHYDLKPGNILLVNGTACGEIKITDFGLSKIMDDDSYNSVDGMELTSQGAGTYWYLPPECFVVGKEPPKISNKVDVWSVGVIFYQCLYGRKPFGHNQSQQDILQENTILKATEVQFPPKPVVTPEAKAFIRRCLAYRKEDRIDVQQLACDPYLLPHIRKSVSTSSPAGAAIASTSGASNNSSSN
Sequence of Mitogen-activated protein kinase kinase kinase 20 (Homo sapiens) (Q9NYL2 2-800 limits assumed): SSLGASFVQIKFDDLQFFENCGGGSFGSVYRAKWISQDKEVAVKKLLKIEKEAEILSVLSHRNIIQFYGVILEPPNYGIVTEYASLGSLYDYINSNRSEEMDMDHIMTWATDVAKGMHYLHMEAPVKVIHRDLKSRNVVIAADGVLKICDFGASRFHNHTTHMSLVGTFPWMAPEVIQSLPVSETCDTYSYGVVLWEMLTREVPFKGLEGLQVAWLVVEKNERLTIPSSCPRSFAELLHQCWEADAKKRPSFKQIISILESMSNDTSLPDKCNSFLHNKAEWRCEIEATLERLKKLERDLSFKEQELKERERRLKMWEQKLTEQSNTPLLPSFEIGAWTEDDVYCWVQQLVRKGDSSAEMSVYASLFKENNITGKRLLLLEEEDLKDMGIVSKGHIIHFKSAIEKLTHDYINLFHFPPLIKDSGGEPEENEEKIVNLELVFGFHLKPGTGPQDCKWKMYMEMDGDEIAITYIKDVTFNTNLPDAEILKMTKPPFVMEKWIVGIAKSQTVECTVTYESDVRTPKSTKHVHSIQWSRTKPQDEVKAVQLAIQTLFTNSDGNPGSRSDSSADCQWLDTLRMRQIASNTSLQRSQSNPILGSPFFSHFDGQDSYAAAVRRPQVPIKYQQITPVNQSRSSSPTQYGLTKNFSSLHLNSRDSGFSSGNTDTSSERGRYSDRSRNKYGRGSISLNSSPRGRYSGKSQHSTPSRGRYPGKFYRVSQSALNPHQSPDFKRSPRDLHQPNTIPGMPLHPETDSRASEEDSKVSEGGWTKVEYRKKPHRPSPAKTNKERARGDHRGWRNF

Regarding `O=C(NC1(c2ccc(F)cc2)CC1)c1ccc2nc(N[C@H]3CC[C@H](O)CC3)c3nccn3c2c1`, the inhibition in assay [1], in assay [2], in assay [3], in [4], in [5] and in assay [6] was < 35% in each case. For the same compound, the inhibition (in [7]; in assay [8]; in assay [9]; in [10]; with PC-3; in assay [11]) was < 35% in each case. Moreover, the inhibition in assay [12] was < 35%.
In the case of `C[C@H](NC(=O)c1ccc2nc(N[C@H]3CC[C@H](O)CC3)c3nccn3c2c1)c1ccccc1`, the inhibition in assay [1], in assay [2], in [3], in [4], in assay [5] and in assay [6] was < 35% throughout. Besides, the inhibition (in [7]; in [8]; in [9]; in assay [10]; in the assay on PC-3; in assay [11]) was < 35% in each case. Besides, the inhibition in assay [12] is < 35%.
As to `O=C(O)c1ccc2nc(N[C@H]3CC[C@H](O)CC3)c3nccn3c2c1`, the inhibition in assay [1] was < 35%; in assay [2], 91.3%; in [3], < 35%; in assay [4], 99.3%; in assay [5], < 35%; in [6] it was < 35%. The inhibition (in [7]; in assay [8]; in assay [9]; in assay [10]; in the assay with PC-3; in assay [11]) was < 35% throughout. Also, in assay [12], the inhibition is < 35%.
With `O=C(NC1(c2ccccc2)CC1)c1ccc2nc(N[C@H]3CC[C@H](O)CC3)c3nccn3c2c1`, the inhibition in assay [1], in assay [2], in assay [3], in assay [4], in assay [5] and in assay [6] was < 35% in each case. In addition, the inhibition (in assay [7]; in [8]; in assay [9]; in assay [10]; with PC-3; in assay [11]) was < 35% in each case. Moreover, the inhibition in assay [12] was < 35%.
Consider `O=C(N[C@H](CO)c1ccccc1)c1ccc2nc(N[C@H]3CC[C@H](O)CC3)c3nccn3c2c1`, for which the inhibition in assay [1] was < 35%; in assay [2], 46.6%; in assay [3], < 35%; in [4], < 35%; in [5] it was < 35%; in assay [6] it was < 35%. For the same compound, the inhibition (in assay [7]; in [8]; in assay [9]; in assay [10]; in the assay with PC-3; in assay [11]) was < 35% in each case. Besides, the inhibition in assay [12] was < 35%.
As to `C[C@@H](NC(=O)c1ccc2nc(N[C@H]3CC[C@H](O)CC3)c3nccn3c2c1)c1ccccc1`, the inhibition in assay [1] was < 35%; in assay [2], 56.2%; in assay [3], < 35%; in assay [4], < 35%; in [5], < 35%; in assay [6], < 35%. For the same compound, the inhibition (in assay [7]; in assay [8]; in [9]; in assay [10]; in the assay with PC-3; in assay [11]) was < 35% throughout. Moreover, the inhibition in assay [12] was < 35%.
Turning to `CC[C@@H](NC(=O)c1ccc2nc(N[C@H]3CC[C@H](O)CC3)c3nccn3c2c1)c1ccccc1`, the inhibition in [1], in assay [2], in assay [3], in assay [4], in [5] and in assay [6] was < 35% in each case. The inhibition (in assay [7]; in [8]; in [9]; in assay [10]; in the assay with PC-3; in assay [11]) was < 35% throughout. The inhibition in assay [12] was < 35%.
Turning to `CCC[C@@H](NC(=O)c1ccc2nc(N[C@H]3CC[C@H](O)CC3)c3nccn3c2c1)c1ccccc1`, the inhibition in [1], in [2], in assay [3], in [4], in [5] and in [6] was < 35% each time. Moreover, the inhibition (in assay [7]; in [8]; in [9]; in [10]; in the assay with PC-3; in [11]) was < 35% throughout. Also, in [12], the inhibition was < 35%.
Take `NC(=O)c1ccc2nc(N[C@H]3CC[C@H](O)CC3)c3nccn3c2c1`: the inhibition in assay [1] is < 35%; in assay [2], 90.4%; in assay [3] it was < 35%; in assay [4] it was 95.6%; in assay [5] it was < 35%; in assay [6] it was < 35%. Further, the inhibition (in assay [7]; in assay [8]; in [9]; in [10]; with PC-3; in assay [11]) was < 35% in each case. The inhibition in [12] is < 35%.

As a reminder, the inhibition is the share of the control response that was lost under treatment. Higher therefore signals a strong effect.
